Reference: patent US8435976B2, “4-substituted pyridin-3-yl-carboxamide compounds and methods of use” (F. Hoffmann-La Roche, priority 2009, dated 2013)
Where two headings read alike, the source gives them in different places.

Tests used:
BaF3 parental cells = assay: BaF3 parental cell proliferation (Cell Titer Glo); format: cell-based; details: Mus musculus, Table 3
Protocol: BaF3 parental line was obtained from the DSMZ repository. BaF3 lines transfected with PIM1 or PIM2 were generated. Mouse IL-3 was purchased from R&D Systems. G418 was purchased from Clontech. Media for BaF3 parental line contained RPMI, 10% FBS, 2 mM L-Glutamine, 2 ng/mL mIL-3. Media for BaF3 PIM1 & 2 lines contained RPMI, 10% FBS, 2 mM L-Glutamine, […]. Media for MM1.S line contained RPMI, 10% FBS, 2 mM L-Glutamine.
BaF3 parental cells, BaF3 PIM1 cells, BaF3 PIM2 cells, and MM1.S cells were seeded at 2 k/well, 5 k/well, 5 k/well, and 10 k/well respectively, in a 384-well plate, at 45 μL/well. Test compound was added at 5 μL/well. BaF3 cells (parental and transfected) were incubated overnight, while MM1.S cells were incubated for 72 hours at 37° C., 5% CO2. Cell Titer Glo Reagent (Promega) was added at 50 μL/well, the plates were incubated for 30 minutes, and their luminescence read on an HT Analyst. IC50/EC50 values for the test compound were calculated.

MM1.S cells = assay: MM1.S cell proliferation, 72 hours (Cell Titer Glo); format: cell-based; details: Homo sapiens
In short: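 BaF3 parental cells (2 k/well, with 2 ng/mL mIL-3) were treated overnight, and MM1.S cells (10 k/well) were treated for 72 h at 37 °C. Viability was read by CellTiter-Glo luminescence. IC50/EC50 values were calculated from the luminescence data.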

[1] = test system: MM1.s multiple myeloma xenografts; assay: MM1.s multiple myeloma xenograft; format: in vivo, SCID mice; details: Compound 3 50 mg/kg po qd, day 18 vs vehicle
Protocol: The efficacy of the combinations of the invention may be measured in vivo by implanting allografts or xenografts of cancer cells in rodents and treating the tumor-bearing animals with the combinations. Variable results are to be expected depending on the cell line, the presence or absence of certain mutations in the tumor cells, the sequence of administration of a formula I compound and chemotherapeutic agent, dosing regimen, and other factors. Subject mice were treated with drug(s) or control (Vehicle) and monitored over several weeks or more to measure the time to tumor doubling, log cell kill, and tumor inhibition.
Dosing of all cohorts commenced on Day 0 when the mean tumor volume of all cohorts was between about 200 to 300 cubic millimeters. […] Formula A was tested at as a single agent at a single dose level of 75 mg/kg for which a lesser TGI was obtained at day 18.

[2] = test system: syngeneic A20 lymphoma tumors; assay: Syngeneic A20 lymphoma tumor model; format: in vivo, Balb/c mice; details: Compound 3 25 and 50 mg/kg or Formula A 75 mg/kg po qd x21
Protocol: The efficacy of the combinations of the invention may be measured in vivo by implanting allografts or xenografts of cancer cells in rodents and treating the tumor-bearing animals with the combinations. […] Subject mice were treated with drug(s) or control (Vehicle) and monitored over several weeks or more to measure the time to tumor doubling, log cell kill, and tumor inhibition.
Dosing of all cohorts commenced on Day 0 when the mean tumor volume of all cohorts was between […]. […] At the conclusion of this study, femurs were collected and histological analysis of the bone marrow was conducted, and peripheral blood was collected for determination of blood cell counts.

[3] = test system: multiple myeloma cell line MM.1S; assay: MM.1S 3 day proliferation assay, single agents and combinations (Cell-Titer Glo); format: cell-based; details: FIG. 1
Protocol: The in vitro potency of the combinations of formula I compounds with chemotherapeutic agents was measured by the cell proliferation assay of Example 11 and the results are compiled in Example iii. The CellTiter-Glo® Luminescent Cell Viability Assay (commercially available from Promega Corp., Madison, Wis.) is a homogeneous assay method based on the recombinant expression of Coleoptera luciferase (U.S. Pat. No. 5,583,024; U.S. Pat. No. 5,674,713; U.S. Pat. No. 5,700,670) and determines the number of viable cells in culture based on quantitation of the ATP present, an indicator of metabolically active cells (Crouch et al (1993) J. Immunol. Meth. 160:81-88; U.S. Pat. No. 6,602,677). The CellTiter-Glo® Assay was conducted in 96 or 384 well format, making it amenable to automated high-throughput screening (HTS) (Cree et al (1995) AntiCancer Drugs 6:398-404). The homogeneous assay procedure involves adding the single reagent (CellTiter-Glo® Reagent) directly to cells cultured in serum-supplemented medium. Cell washing, removal of medium and multiple pipetting steps are not required. The system detects as few as 15 cells/well in a 384-well format in 10 minutes after adding reagent and mixing.
The homogeneous “add-mix-measure” format results in cell lysis and generation of a luminescent signal proportional to the amount of ATP present. […] Viable cells are reflected in relative luminescence units (RLU). […] Data can be recorded by luminometer or CCD camera imaging device. The luminescence output is presented as relative light units (RLU), measured over time.
The combination index (CI) score is calculated by the Chou and Talalay method (Chou, T. and Talalay, P. (1984) Adv. Enzyme Regul. 22:27-55). […] The strength of synergy is assessed according to Chou and Talalay. […]
The in vitro cell survival and proliferation assay (Cell-Titer Glo, Promega) measured viable cells over varying inhibitor concentrations (10^−3 to 10 μMolar, Relative Units, wherein a Relative Unit equals 0.3 micromolar for Compound 3, 0.3 micromolar for Formula A, and 0.1 micromolar for Formula B). […]

EC50 (MM1.S cells; 72 hours, read-out: Prolif MM1S ATP (EC50)): 49.7 nM
EC50 (MM1.S cells; Table 3, read-out: MM1.s): 200 nM
Structure (SMILES): Nc1sc(-c2c(F)cccc2F)nc1C(=O)Nc1cnccc1N1CCC[C@H](N)C1 [Example 3, (S)-5-amino-N-(4-(3-aminopiperidin-1-yl)pyridin-3-yl)-2-(2,6-difluorophenyl)thiazole-4-carboxamide]
IC50 (BaF3 parental cells): 8000 nM
tumor growth inhibition (TGI) [1]: about 60%
effect on tumor growth, single agents [2]: no significant effect on tumor growth
lowest level reached by dose-response curve, of control value [3]: does not fully reach 0% of the control value
